These results are taken from patent publication US9464075B2 (priority 2008, dated 2016).

Each structure is given as a SMILES string. Like-named read-outs stand apart in the source and are kept apart here.

Experiment [1] has as its target A/M2 channels (Influenza virus A/Udorn/72 A/M2 protein) (Influenza A virus, UniProt P0DOF5). As to the kind of experiment: cell-based. The following applies: for activity at 100 µM: read-out: AM2 channel activity after 100 μM compound inhibition.
The next experiment addresses A/M2TM (22-46) (Influenza A virus, UniProt P0DOF5). The experiment can be described thus: biochemical. The experiment is classed as binding.
In the next experiment the target is AM2 (Influenza A virus, UniProt P0DOF5). The experiment can be described thus: cell-based. The following applies: read-out: AM2 % inhibition at 100 μM.
Sequence of AM2 (P0DOF5 whole entry): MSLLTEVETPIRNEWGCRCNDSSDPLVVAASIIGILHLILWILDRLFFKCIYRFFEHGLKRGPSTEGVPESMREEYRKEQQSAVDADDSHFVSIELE

Sequence of A/M2 channels (Influenza virus A/Udorn/72 A/M2 protein) (P0DOF5 whole entry, looked up): as the sequence (P0DOF5 whole entry) above
Sequence of A/M2TM (22-46) (P0DOF5 22-46 limits assumed): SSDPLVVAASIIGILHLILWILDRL

For `NC12CC3CC(CC(C3)C1)C2` [Amantadine, reference compound], the activity at 100 µM in experiment [1] stood at 6%.
Regarding `C1CCC2(CC1)CCN(C1=NCCN1)CC2` [BL-1743, 3-(4,5-Dihydro-1H-imidazol-2-yl)-3-aza-spiro[5.5]undecane, reference compound], in experiment [1], half-maximal inhibition (IC50) required 45.3 ± 3.92 µM and the activity at 100 µM is 25%. On A/M2TM (22-46), this compound gave a Kd of 194 µM.
In the case of `Cl.NC1CCC2(CCCCC2)CC1` [Compound 8], the “AM2 channel activity after 100 μM compound inhibition” value in experiment [1] is 11%.
In the case of `c1nc(NC2CCC3(CCCCC3)CC2)n[nH]1` [Compound 11, Spiro[5.5]undec-3-yl-(1H-[1,2,4]triazol-3-yl)-amine], the activity at 100 µM in experiment [1] is 25%.
As to `NCCNC1CCC2(CCCCC2)CC1` [Compound 12, N^1-Spiro[5.5]undec-3-yl-ethane-1,2-diamine], the activity at 100 µM in experiment [1] came to 100%.
Turning to `NCCCNC1CCC2(CCCCC2)CC1` [Compound 13, N^1-Spiro[5.5]undec-3-yl-propane-1,3-diamine], in experiment [1], the activity at 100 µM was 100%.
Still for that read-out and setting: the value for `c1nc(CNCCNC2CCC3(CCCCC3)CC2)c[nH]1` [Compound 14, N-(1H-Imidazol-4-ylmethyl)-N′-spiro[5.5]undec-3-yl-ethane-1,2-diamine] was 91%.
Take `OC1(c2cnc[nH]2)CCC2(CCCCC2)CC1` [Compound 15]: in experiment [1], the activity at 100 µM came out at 40%.
As to `OC(c1c[nH]cn1)C1CCC2(CCCCC2)CC1` (stereo not shown) [Compound 18], the activity at 100 µM in experiment [1] was 30%.
Take `C1CCC2(CC1)CCNCC2` [Compound 20, 3-Aza-spiro[5.5]undecane, reference compound]: in experiment [1], the concentration for half-maximal inhibition (IC50) amounted to 0.92 ± 0.11 µM and the activity at 100 µM is 5%. Further, the Kd at A/M2TM (22-46) (read-out: Kd) was found to be 12.9 µM.
For `NN1C(=O)CC2(CCCCC2)CC1=O` [Compound 28, 3-Amino-3-aza-spiro[5.5]undecane-2,4-dione], at AM2, the inhibition at 100 µM turned out to be 29%.
Still for that read-out and setting: then `NN1CCC2(CCCCC2)CC1` [Compound 29, 3-Aza-spiro[5.5]undec-3-yl-ammonium chloride], with 86%; and `C1CCC2(CC1)CCCNCC2` [Compound 30, 9-Azonia-spiro[5.6]dodecane chloride], with 94%; and `Cl.NNC1CCC2(CCCCC2)CC1` [Compound 31, N′-Spiro[5.5]undec-3-yl-hydrazinium chloride], with 78.8%.
For the compound `CCC1(CC)CCc2nc(N)sc2C1` [Compound 32, 6,6-Diethyl-4,5,6,7-tetrahydro-benzothiazol-2-ylamine], at AM2, the inhibition at 100 µM stood at 32%.
On to `Cl.NC1CSC2(CCCCC2)SC1` [Compound 33, 1,5-Dithia-spiro[5.5]undec-3-yl-ammonium chloride], for which the inhibition at 100 µM on AM2 amounted to 84.2%.
On the same count and under the same terms, the value for `NC1CSC2(CCCCCC2)SC1` [Compound 34, 1,5-Dithia-spiro[5.6]dodec-3-yl-ammonium chloride] was 84.1%.
In the case of `N=C(N)NC1CCC2(CCCCC2)CC1` [Compound 35], the inhibition at 100 µM at AM2 was determined as 92%.
